Experimental data published in US20220202743A1, “PHARMACEUTICAL COMPOSITION FOR PREVENTING OR TREATING DEGENERATIVE BRAIN DISEASE USING AUTOPHAGY ACTIVATION” (VASTHERA CO. LTD., priority 2019, published 2022).
Read-outs that look alike come from different tables or passages of the source.

Key:
[1] = tested on: HUVECs; assay type: cell-based
Excerpt: In order to visualize the change from neutral autophagosomes to acidic autophagosomes based on the different pH stabilities between mRFP-LC3 and GFP-LC3, LC3 double tagged with mRFP/mCherry-GFP may be used. The fluorescence of mRFP is relatively stable in rososomes, but the fluorescence of GFP is unstable in acidic substances.

[2] = tested on: LC3-II and p62; assay: Time-dependent immunoblotting of LC3-II and p62 (autophagic flux); conditions: immunoblotting 24-72 hours, FIG. 1D
Protocol: In order to investigate whether the pharmaceutical composition triggers protein turnover and motility of autophagy, various methods available were used to detect autophagic degradation and to monitor autophagic flux. First, LC3-II and p62 levels were measured by a basic time-dependent immunoblotting method as a method of examining how many autophagy substrates were degraded in a lysosome-dependent manner. Since LC3-II and p62 are only selectively degraded during autophagy, the degradation thereof is widely used to evaluate autophagic flux.

[3] = tested on: huntingtin; conditions: mouse model; cited from earlier work
[4] = tested on: autophagy; conditions: Johns Hopkins Drug Library, 2,386 compounds
[5] = tested on: AMPK/mTOR/S6K signaling; assay: Immunoblotting of AMPK/mTOR/S6K signaling; assay type: cell-based
Excerpt: The AMPK-mTOR canonical pathway may be activated by generating insufficient cellular energy, and autophagy is induced.

[6] = tested on: LC3; assay: LC3 immunofluorescence staining; assay type: cell-based; conditions: for LC3 induction in the cytoplasm: LC3 immunofluorescence, FIG. 1A, versus untreated control
[7] = tested on: autophagic vacuoles; assay: MDC fluorescence staining of autophagic vacuoles; assay type: cell-based; conditions: FIG. 1C, versus untreated control
[8] = molecular target: VDAC1 (Homo sapiens, UniProt P21796); conditions: DARTS, FIG. 3A
[9] = tested on: Hela cells; assay: Western blotting of LC3-II in wild-type and TFEB-deficient Hela cells; assay type: cell-based; conditions: FIG. 2F
[10] = tested on: TFEB; assay: EGFP-TFEB nuclear translocation; assay type: cell-based; conditions: HUVECs with EGFP-TFEB plasmid, 2 to 24 hours, FIG. 2E
Excerpt: Recently, transcription factor EB (TFEB), a major modulator of autophagy induction and lysosome biogenesis, has been known to communicate with the mTOR signaling pathway.

[11] = tested on: LC3-II; assay: LC3-II level in presence and absence of lysosomal protease inhibitor E64D; conditions: FIG. 1E
[12] = tested on: HUVEC; assay: Cell ATP level, ATPlite luminescence assay system; conditions: treated for 0 to 360 minutes, FIG. 2A
[13] = tested on: tau and truncated tau; assay: Tau and truncated tau levels; assay type: cell-based; conditions: FIG. 4A
[14] = tested on: lysosomes; assay: Lysosomal activity by acridine orange staining; assay type: cell-based; conditions: FIG. 1G
[15] = tested on: EGFP-LC3 puncta; assay: EGFP-LC3 puncta with Compound C or upstream autophagy inhibitors; conditions: together with Compound C, FIG. 2C
[16] = molecular target: β-actin (Homo sapiens, UniProt P60709); assay: DARTS analysis, β-actin; conditions: FIG. 3A
Excerpt: The changes in the sensitivity to hydrolysis are observed using the DARTS method, and the DARTS method is a label-free detection method for target recognition and verification using changes in the sensitivity of proteins to hydrolysis caused by binding to small molecules.

[17] = tested on: EGFP-LC3 puncta; assay: EGFP-LC3 puncta in wild-type and VDAC1−/− MEFs; assay type: cell-based, mouse; conditions: FIG. 3G
[18] = tested on: AMPK/mTOR/S6K signaling; assay: AMPK/mTOR/S6K signaling in wild-type and VDAC1−/− MEFs; assay type: cell-based, mouse; conditions: FIG. 3F
[19] = tested on: tau-BiFC cells; assay: tau-BiFC cell assay of tau oligomerization; assay type: cell-based; conditions: okadaic acid induction, versus DMSO, FIG. 4B
Excerpt: This effect is because rapamycin attenuates the progression of tauopathy by inducing mTOR-dependent autophagy. […]. In order to visualize and quantify intracellular tau oligomerization, a tau cell line was used in combination with bimolecular fluorescence complementation (BiFC).
Referring to FIG. 4B, the amino-terminal and carboxyl-terminal portions of the Venus protein are independently fused to htau40 and irradiated with a basal fluorescence signal under normal conditions (first lane). However, when chemical induction of tau high-phosphorylation, such as okadaic acid, which is the same as that occurs as a result of tau oligomerization occurs, a strong fluorescence signal may be generated, and thus yellow fluorescent substances are observed in the samples in which tau protein is present (second lane). […].

Sequence of VDAC1 (P21796 whole entry, species assumed): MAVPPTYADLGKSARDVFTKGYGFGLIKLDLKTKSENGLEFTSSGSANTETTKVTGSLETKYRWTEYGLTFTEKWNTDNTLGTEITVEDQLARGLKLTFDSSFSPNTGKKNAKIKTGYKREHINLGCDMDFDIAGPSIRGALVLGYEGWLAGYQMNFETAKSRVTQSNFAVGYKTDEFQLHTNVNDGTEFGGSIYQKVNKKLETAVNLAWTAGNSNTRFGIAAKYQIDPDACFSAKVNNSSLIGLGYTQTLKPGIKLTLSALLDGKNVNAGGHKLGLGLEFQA

CO/C1=C\C(C)=C\[C@@H](C)[C@@H](O)[C@@H](C)C/C(C)=C/C=C/[C@H](OC)[C@@H]([C@@H](C)[C@@H](O)[C@H](C)[C@@]2(O)C[C@@H](O)[C@H](C)[C@@H](C(C)C)O2)OC1=O [bafilomycin A]
R value ([1]; GFP and mRFP fluorescence, FIG. 1F): 0.943
levels of LC3-II and p62 over time [2]: increase within 24 hours and the high levels of the two types of proteins are maintained during the post-treatment time of 72 hours

OC[C@H]1O[C@H](O[C@H]2O[C@H](CO)[C@@H](O)[C@H](O)[C@H]2O)[C@H](O)[C@@H](O)[C@@H]1O [trehalose]
huntingtin aggregates / mutant huntingtin, motility, lifespan [3]: mutant huntingtin, motility, and lifespan in the brain of a mouse model have been improved

CNC1CC(c2ccc(Cl)c(Cl)c2)c2ccccc21 (stereo not drawn) [indatraline]
autophagy inducing activity in screening [4]: having autophagy inducing activity
ratio of p-AMPK/AMPK (phosphorylation level of AMPK) ([5]; FIG. 2A/2B): relatively high
LC3 induction in the cytoplasm [6]: induce LC3 in the cytoplasm
LC3 expression [7]: express LC3

CN[C@H]1CC[C@@H](c2ccc(Cl)c(Cl)c2)c2ccccc21 [sertraline]
stability of VDAC1 against pronase [8]: increased stability
conversion to LC3-II [9]: induces conversion to LC3-II in both TFEB+/+ and TFEB−/− HeLa cells
nuclear translocation of TFEB [10]: not detected
LC3-II level with E64D versus without E64D [11]: further increases
phosphorylation of S6K ([5]; FIG. 2B): decreasing the phosphorylation level of mTOR and its downstream S6K
intracellular ATP level [12]: decreases in proportion to the time
tau and truncated tau [13]: significantly decreased
density of acridine orange [14]: significantly increases the density of acridine orange
R value [1]: 0.517
induced amount of LC3 in the cytoplasm ([6]; 0.1 μM, 2 μM or 5 μM, FIG. 1B): LC3 is induced in the cytoplasm in proportion to the amount of sertraline administered
LC3 induction in the cytoplasm [6]: induce LC3 in the cytoplasm similar to the case of being treated with indatraline
EGFP-LC3 puncta / induced autophagy on treatment with Compound C [15]: remarkably decrease
stability of β-actin against pronase [16]: degraded by pronase
levels of LC3-II and p62 over time [2]: increase rapidly for 24 hours, peak at the 48th hour, and then decrease from the 72th hour
LC3 expression [7]: express LC3
EGFP-LC3 puncta, MEFs without VDAC versus wild-type MEFs [17]: significantly decrease
AMPK/mTOR/S6K signaling in MEFs without VDAC1 ([18]; VDAC1−/− MEFs): does not modulate AMPK/mTOR/S6K signaling
AMPK/mTOR/S6K signaling in wild-type MEFs ([18]; WT MEFs): significantly activates AMPK and inhibits mTOR/S6K phosphorylation
tau aggregates [19]: significantly fewer tau aggregates than those in the cells treated with DMSO

C1COC(NC(C2CC2)C2CC2)=N1 [rilmenidine]
huntingtin aggregates / mutant huntingtin, motility, lifespan [3]: huntingtin aggregates have been successfully removed
